Entries after “also recorded” stand apart in the source; their conditions may differ. Like-named read-outs stand apart in the source and are kept apart here.
Assays:
SK-MEL-31 [1] = conditions: BRAF-wt, RAS-wt; cited from earlier work
SK-MEL-28 [2] = conditions: BRAF-mut (V600E); cited from earlier work
RPMI-7951 [3] = conditions: BRAF-mut (V600E), COT Amplification; cited from earlier work
melanoma = conditions: phase I and II clinical trials; cited from earlier work
[4] = system: Breast Cancer Cell lines (BT-474, MDA-MD-231, SKBR3, HCC-1937, BT-20, T47D, MCF-7, BT-549); conditions: EGF 200 ng/ml with U0126 1 μM
Protocol: Breast Cancer Cell lines (BT-474, MDA-MD-231, SKBR3, HCC-1937, BT-20, T47D, MCF-7, BT-549) are propagated and removed from the plate by gentle scraping to simulate a FNA biopsy sample. Following removal, the cells were placed on the SnapPath™ live-tumor-cell processing platform (BioMarker Strategies, LLC) to evoke ex vivo biomarkers. SnapPath™ disperses the sample, enriches for tumor cells, aliquots into test wells, and applies ex vivo stimulation by EGF (200 ng/ml) in the presence or absence of the MEK inhibitor, U0126 (1 μM). Cell lysates are then analyzed using the BioPlex platform for the following phosphoproteins: p-Erk 1/2, p-AKT, p-EGFR, p-Stat3 (BioRad). Functional profiles are generated for each cell line based on the levels of phosphoproteins.

SK-MEL-28 cells = conditions: MEK inhibition, absence of EGF stimulation
Excerpt: (§1) Protein levels measured include pAKT, pErk, pGSK3β, pP70S6k, pSTAT3, and pEGFR.

SK-MEL-28 [5] = conditions: MEK inhibition of PDGFβ stimulation
Excerpt: as §1

SK-MEL-2 = conditions: MEK inhibition of PDGFβ stimulation
Excerpt: as §1

SK-MEL-31 cells = conditions: MEK inhibition, absence of EGF stimulation
Excerpt: as §1

RPMI-7951 [6] = test: PDGFβ stimulation and MEK inhibition of PDGFβ stimulation (FIGS. 23 and 24); format: cell-based; conditions: MEK inhibition of PDGFβ stimulation
SK-MEL-28 [7] = test: EGF stimulation in the presence of PLX-4702 or U0126 (FIGS. 33 and 34); format: cell-based
Excerpt: (§2) Protein levels measured include pAKT, pErk, pMEK.

RPMI-7951 cells = test: EGF stimulation and PLX or MEK inhibition (FIG. 35); format: cell-based
Excerpt: Protein levels measured include pAKT, pErk, pMEK and pEGFR.

RPMI-7951 [8] = test: PDGFRβ activation in the absence or presence of U0126 or PLX-4702 (FIG. 36); format: cell-based
Excerpt: as §2

SK-MEL-21 = conditions: MEK inhibition of PDGFβ stimulation
BT474 = test: EGF stimulation, phosphoprotein modulation score (BioPlex bead-immunoassay); format: cell-based; conditions: 200 ng/ml EGF 5 minutes
Protocol: (§3) Breast cancer cell lines (MCF-7, HCC-1937, MDA-MB-231, BT474, and SKBR3) are exposed to either vehicle (control) or stimulated with 200 ng/ml epidermal growth factor (EGF) for 5 minutes then lysed and proteins extracted. Mean Fluorescence Intensity (MFI) levels of six phosphoproteins (pEGFR, pErk, pAKT, pP70S6K, pGSK3β, and pSTAT3) are determined in sextuplet using a multiplexed bead-immunoassay (BioPlex, BioRad) and a modulation score (MS), defined as the log 2 (MFI stimulated/MFI control), calculated for each. Scores are ranked by percentile relative to the median (0.66) and inter-quartile range (IQR) (1.54). Moderate responders are classified as those with MS between the 75th percentile (2.20) and the 75th percentile plus the IQR (3.74). High responders are those MS>3.74. Low responders are those MS falling between the IQR and 75th percentile (1.54-2.20) whereas non responders are classified as MS<1.54.

HCC-1937 = test: as above; format: cell-based; conditions: 200 ng/ml EGF 5 minutes
Protocol: as §3

MCF-7 cells = test: as above; format: cell-based; conditions: 200 ng/ml EGF 5 minutes
Protocol: as §3

SKBR3 = test: as above; format: cell-based; conditions: 200 ng/ml EGF 5 minutes
Protocol: as §3

[9] = system: Breast cancer cell lines (MCF-7, HCC-1937, MDA-MB-231, BT474, and SKBR3); test: EGF stimulation, phosphoprotein modulation score, cell line panel; format: cell-based; conditions: 200 ng/ml EGF 5 minutes
Protocol: as §3

RPMI-7951 [10] = test: Melanoma functional signaling profile upon EGF stimulation (FIG. 15); format: cell-based
Protocol: (§4) Protein levels are measured for pAKT, pERK, pGSK3, p70S6K, pSTAT, pEGFR in RPMI-7951, SK-MEL 2, SK-MEL 28, and SK-MEL 31 cells. Fold changes are calculated for protein level before and after EGF stimulation.

SK-MEL-31 [11] = test: as above; format: cell-based
Protocol: as §4

## CCCS(=O)(=O)Nc1ccc(F)c(C(=O)c2c[nH]c3ncc(-c4ccc(Cl)cc4)cc23)c1F [PLX-4032]
SK-MEL-31 [1]
  PLX-4032 Phenotype: resistance; also recorded: Resistant
SK-MEL-28 [2]
  PLX-4032 Phenotype: Sensitive
RPMI-7951 [3]
  PLX-4032 Phenotype: resistance; also recorded: Resistant
melanoma
  response rate: remarkable response rate

## N#CC(=C(/N)Sc1ccccc1N)/C(C#N)=C(\N)Sc1ccccc1N [U0126]
[4]; another functional group
  pAKT phosphorylation level: unanticipated up-regulation of p-AKT
[4]; one functional group
  pAKT phosphorylation level: low levels of p-AKT inhibition
  pEGFR phosphorylation level: low p-EGFR inhibition
[4]; other functional group
  pEGFR phosphorylation level: unanticipated up-regulation of p-EGFR
SK-MEL-28 cells
  pEGFR: activated
  pErk: inhibited
SK-MEL-28 [5]
  reduction of pErk: approximately 50%
SK-MEL-2
  pErk: not impacted
SK-MEL-31 cells
  pAkt: upregulated
  pErk: inhibited
RPMI-7951 [6]
  reduction of pErk: approximately 50%
SK-MEL-28 [7]; MEK inhibitor and EGF
  pMEK: increased
RPMI-7951 cells; EGF stimulation, MEK inhibition
  pErk: decreased
RPMI-7951 [8]; MEK inhibition
  pMEK down-regulation: less effective
SK-MEL-21
  reduction of pErk: approximately 50%

## epidermal growth factor [EGF]
BT474
  EGFR-phosphorylation MS: 2.57
HCC-1937
  MS for pErk: 2.89
MCF-7 cells
  STAT-3 phosphorylation MS: 2.34
MCF-7 cells; MS = log 2 (MFI stimulated/MFI control)
  MS for pErk: 3.92
SKBR3
  pAKT MS: 1.78
[9]; all cells except BT474
  EGFR-phosphorylation response class: high
[9]; all five cell lines
  pGSK3β MS: < 1.0
  pP70S6K MS: < 1.0
[9]; markers not named individually
  MS of all other markers across the five cell lines: < 1.54
[9]; other lines tested (not MCF-7, HCC-1937)
  pErk response class: none
RPMI-7951 [10]
  induction of pEGFR: highest induction
SK-MEL-31 [11]
  induction of pEGFR: highest induction
RPMI-7951 cells; all EGF modulation
  pEGFR: dramatically increased

## CCCS(=O)(=O)Nc1ccc(F)c(C(=O)c2c[nH]c3ncc(Cl)cc23)c1F [PLX-4702]
SK-MEL-28 [7]; PLX inhibition plus EGF stimulation
  pERk expression: reduced
RPMI-7951 [8]; presence of PLX-4702
  pMEK: down-regulated
